Laboratory results taken from paper PMC6151589, “Identification of Optically Active Pyrimidine Derivatives as Selective 5-HT2C Modulators” (Molecules : A Journal of Synthetic Chemistry and Natural …, 2017).

Assays:
Assay in all cases: biochemical
Set-up in all cases: species or system HEK293 or CHO; competitive radioligand binding on crude membranes, filtration and scintillation counting
[1] = biological target: T1, 5-HT2B (Homo sapiens, UniProt P41595)
T1 construct: gene HTR2B; human recombinant receptor; crude membrane fractions of transfected HEK293 or CHO cells
T1 sequence (P41595 whole entry): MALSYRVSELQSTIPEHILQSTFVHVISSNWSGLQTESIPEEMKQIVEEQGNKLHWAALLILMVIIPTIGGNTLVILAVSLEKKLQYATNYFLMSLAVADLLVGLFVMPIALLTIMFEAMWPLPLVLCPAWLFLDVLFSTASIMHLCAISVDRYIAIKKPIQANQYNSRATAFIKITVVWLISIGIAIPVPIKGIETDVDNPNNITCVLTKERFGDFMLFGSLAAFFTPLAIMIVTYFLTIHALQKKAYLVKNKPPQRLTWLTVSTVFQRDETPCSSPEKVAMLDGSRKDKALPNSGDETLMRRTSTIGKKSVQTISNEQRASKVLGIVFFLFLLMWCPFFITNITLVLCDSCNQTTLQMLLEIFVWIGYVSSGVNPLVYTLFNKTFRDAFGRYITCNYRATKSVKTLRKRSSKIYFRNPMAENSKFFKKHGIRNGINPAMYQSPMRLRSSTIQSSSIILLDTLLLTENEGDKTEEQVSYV
Method: (§1) Eleven dilutions (5 × assay concentration) of the test and reference compounds (Table S1) were prepared in standard binding buffer (50 mM tris(hydroxymethyl)-aminomethane-HCl (Tris-HCl), 10 mM MgCl2, 1 mM ethylenediaminetetraacetate (EDTA), pH 7.4) by serial dilution: 0.05 nM, 0.5 nM, 1.5 nM, 5 nM, 15 nM, 50 nM, 150 nM, 500 nM, 1.5 μM, 5 μM, and 50 μM. The radioligand (Table S3) was diluted to five times the assay concentration in standard binding buffer. Aliquots ([…]) of the radioligand were dispensed into the wells of a 96-well plate containing […] of standard binding buffer. Triplicate aliquots ([…]) of the test and reference compound dilutions were then added. Finally, crude membrane fractions ([…]) of cells (HEK293 or CHO) expressing human recombinant receptors were dispensed into each well. A total of […] of the reaction mixtures was incubated at room temperature and shielded from light for 1.5 h, and was then harvested by rapid filtration onto Whatman GF/B glass fiber filters presoaked with 0.3% polyethyleneimine, by using a 96-well Brandel harvester (Gaithersburg, MD, USA). Four rapid washes were performed with chilled standard binding buffer (500 mL) to decrease nonspecific binding. Filters were placed in 6 mL scintillation tubes and allowed to dry overnight. The next day, 4-mL of EcoScint scintillation cocktail (National Diagnostics) was added to each tube. The tubes were capped, labeled, and counted by […] scintillation counting. The filter mats were dried, and the scintillant was melted onto the filters, then the radioactivity retained on the filters was counted in a Microbeta scintillation counter. The IC50 values were obtained by using the Prism 4.0 program (GraphPad Software, La Jolla, CA, USA) and were converted into Ki values. Each compound was tested at least in triplicate. With each enantiomer (R)- or (S)-5d and 5e in hand, the optically active pyrimidine derivatives 4d–4e were synthesized following the same reaction sequences (Scheme 3). Finally, compounds 4d and 4e were assessed for their binding affinity to 5-HT2 receptor subtypes by radioligand binding assays. […] A further evaluation of these compounds for other 5-HT receptor subtypes was also performed and is provided in the supplementary data (Table S2). […] Considering the potencies and selectivities of 4, we can conclude that (R,R)-4e would be a viable candidate for a selective 5-HT2C modulator.

[2] = biological target: T2, 5-HT5A (Homo sapiens, UniProt P47898)
T2 construct: gene HTR5A; human recombinant receptor, crude membranes of HEK293 or CHO cells
T2 sequence (P47898 whole entry): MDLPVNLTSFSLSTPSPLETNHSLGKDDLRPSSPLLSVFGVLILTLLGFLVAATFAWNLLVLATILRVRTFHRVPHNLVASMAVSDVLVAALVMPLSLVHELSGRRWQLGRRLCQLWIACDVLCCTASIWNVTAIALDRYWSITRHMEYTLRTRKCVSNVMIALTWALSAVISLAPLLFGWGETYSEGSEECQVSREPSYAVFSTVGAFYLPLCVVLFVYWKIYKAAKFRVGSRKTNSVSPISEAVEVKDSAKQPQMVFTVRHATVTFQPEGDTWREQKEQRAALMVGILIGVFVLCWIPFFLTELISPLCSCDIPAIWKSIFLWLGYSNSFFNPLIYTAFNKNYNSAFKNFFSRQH
Method: as §1

[3] = biological target: T3, 5-HT3 (Homo sapiens, UniProt P46098); conditions: for Ki: read-out: Ki (nM), 3
T3 construct: gene HTR3A; human recombinant receptor, crude membranes of HEK293 or CHO cells
T3 sequence (P46098 1-478): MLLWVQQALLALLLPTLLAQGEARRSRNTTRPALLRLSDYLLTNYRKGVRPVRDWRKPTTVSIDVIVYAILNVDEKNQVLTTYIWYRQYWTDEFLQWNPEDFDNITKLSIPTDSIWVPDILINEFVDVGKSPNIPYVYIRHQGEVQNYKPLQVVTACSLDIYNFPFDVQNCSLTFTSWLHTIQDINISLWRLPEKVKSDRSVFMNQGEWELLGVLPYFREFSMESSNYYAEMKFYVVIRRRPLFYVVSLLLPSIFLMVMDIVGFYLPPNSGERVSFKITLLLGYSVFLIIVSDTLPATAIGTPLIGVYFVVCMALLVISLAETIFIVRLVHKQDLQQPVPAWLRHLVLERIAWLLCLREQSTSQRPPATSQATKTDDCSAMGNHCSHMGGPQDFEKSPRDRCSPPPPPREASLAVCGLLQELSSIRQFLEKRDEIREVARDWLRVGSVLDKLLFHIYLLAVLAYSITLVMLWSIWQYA
Method: as §1

[4] = biological target: T4, 5-HT7 (Homo sapiens, UniProt P34969); conditions: for Ki: read-out: Ki (nM), 7
T4 construct: gene HTR7; human recombinant receptor, crude membranes of HEK293 or CHO cells
T4 sequence (P34969 whole entry): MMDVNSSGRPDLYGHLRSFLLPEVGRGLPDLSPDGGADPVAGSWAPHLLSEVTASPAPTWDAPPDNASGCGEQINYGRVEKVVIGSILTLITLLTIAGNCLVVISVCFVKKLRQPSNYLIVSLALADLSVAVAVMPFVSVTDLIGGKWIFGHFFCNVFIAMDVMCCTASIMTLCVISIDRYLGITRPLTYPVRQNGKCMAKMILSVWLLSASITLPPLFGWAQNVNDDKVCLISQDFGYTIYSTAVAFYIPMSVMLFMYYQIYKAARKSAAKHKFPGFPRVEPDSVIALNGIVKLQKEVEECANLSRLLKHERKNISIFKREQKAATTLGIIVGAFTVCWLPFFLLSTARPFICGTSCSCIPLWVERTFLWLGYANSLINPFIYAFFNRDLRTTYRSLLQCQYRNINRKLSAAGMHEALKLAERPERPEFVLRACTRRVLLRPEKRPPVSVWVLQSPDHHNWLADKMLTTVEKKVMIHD
Method: as §1

[5] = biological target: T5, 5-HT1A (Homo sapiens, UniProt P08908); conditions: for Ki: read-out: Ki (nM), 1A
T5 construct: gene HTR1A; human recombinant receptor, crude membranes of HEK293 or CHO cells
T5 sequence (P08908 1-422): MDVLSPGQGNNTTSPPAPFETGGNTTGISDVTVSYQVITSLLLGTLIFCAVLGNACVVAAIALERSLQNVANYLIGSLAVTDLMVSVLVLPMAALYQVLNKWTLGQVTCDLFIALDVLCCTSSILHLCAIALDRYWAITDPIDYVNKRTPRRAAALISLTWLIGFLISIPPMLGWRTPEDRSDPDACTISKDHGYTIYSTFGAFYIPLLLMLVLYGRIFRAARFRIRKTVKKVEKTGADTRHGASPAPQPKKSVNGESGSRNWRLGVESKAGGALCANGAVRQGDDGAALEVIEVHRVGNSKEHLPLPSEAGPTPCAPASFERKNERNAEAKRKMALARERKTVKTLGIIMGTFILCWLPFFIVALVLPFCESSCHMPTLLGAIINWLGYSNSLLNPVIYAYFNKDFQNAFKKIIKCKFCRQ
Method: as §1

SMILES | inhibition at 10 µM [1] [%] | inhibition at 10 µM [2] [%] | inhibition at 10 µM [3] [%] | Ki [3] [nM] | inhibition at 10 µM [4] [%] | Ki [4] [nM] | inhibition at 10 µM [5] [%] | Ki [5] [nM]
C[C@H](Oc1nc(N2CCNC[C@H]2C)ncc1F)c1ccc(F)cc1 [(S,R)-4e, 5-Fluoro-4-((S)-1-(4-fluorophenyl)ethoxy)-2-((R)-2-methylpiperazin-1-yl)pyrimidine] | 95.3 | 5.2 | 70.1 | 1000 | 64.8 | 946 | 67.3 | 1120
C[C@H](Oc1nc(N2CCNC[C@H]2C)ncc1F)c1cccc(F)c1 [(S,R)-4d, 5-Fluoro-4-((S)-1-(3-fluorophenyl)ethoxy)-2-((R)-2-methylpiperazin-1-yl)pyrimidine] | – | 22.8 | 78.6 | 501 | 56.9 | 766 | 67.7 | 806
C[C@@H]1CNCCN1c1ncc(F)c(O[C@H](C)c2ccc(F)cc2)n1 [(R,R)-4e, 5-Fluoro-4-((R)-1-(4-fluorophenyl)ethoxy)-2-((R)-2-methylpiperazin-1-yl)pyrimidine] | 99.6 | 26.7 | 87.8 | 242 | 87.6 | 236 | 10 | –
C[C@H](Cc1cccc(F)c1)Oc1nc(N2CCNC[C@H]2C)ncc1F [compound 3, pyrimidine analogue 3] | 97.4 | 37.4 | 75 | 241 | 94.7 | 84 | 89 | 353
C[C@@H]1CNCCN1c1ncc(F)c(O[C@H](C)c2cccc(F)c2)n1 [(R,R)-4d, 5-Fluoro-4-((R)-1-(3-fluorophenyl)ethoxy)-2-((R)-2-methylpiperazin-1-yl)pyrimidine] | 100 | 28.1 | 89.4 | 242 | 84.4 | 444 | 78 | 98
